Laboratory results reported in ChEMBL document CHEMBL5338788, “Discovery of a New-Generation S-Adenosylmethionine-Noncompetitive Covalent Inhibitor Targeting the Lysine Methyltransferase Enhancer of Zeste Homologue 2” (J Med Chem, 2023).
Active and inactive are the calls of the source. The calls are words filed in the database; no cut-off is given here.

Tests used:
KARPAS-422 [1] = assay: Downregulation of H2K27me3 level in human KARPAS-422 cells incubated for 48 to 96 hrs by Western blot analysis; type: functional, cell-based; conditions: dose 0.05-1 µM, time 48-96 hrs
KARPAS-422 [2] = assay: Downregulation of H2K27me3 level in human KARPAS-422 cells at 0.05 to 1 uM by Western blot analysis; type: functional, cell-based; conditions: dose 0.05-1 µM, time 48-96 hrs, TDE = time-dependent effect
KARPAS-422 [3] = assay: Antiproliferative activity against human KARPAS-422 cells expressing EZH2 Y641N mutant assessed as inhibition of cell proliferation incubated for 6 days by CCK8 assay; type: functional, cell-based; conditions: KARPAS-422, 144 h
Pfeiffer [4] = assay: Antiproliferative activity against human Pfeiffer cells expressing EZH2 […] mutant assessed as inhibition of cell proliferation incubated for 6 days by CCK8 assay; type: functional, cell-based; conditions: 144 h
[5] = Metabolic stability in human liver microsomes assessed as half life preincubated for 10 mins followed by NADPH addition measured upto 60 mins by LC-MS/MS analysis; type: ADME, Microsome; conditions: time < 70 min
[6] = Apparent permeability in human Caco-2 cells at 20 uM measured for 35 to 95 mins by LC-MS/MS analysis; type: ADME, cell-based; conditions: time 35-95 min
Pfeiffer [7] = assay: Downregulation of H2K27me3 level in human Pfeiffer cells incubated for 48 to 96 hrs by Western blot analysis; type: functional, cell-based; conditions: dose 0.05-1 µM, time 48-96 hrs
Pfeiffer [8] = assay: Downregulation of H2K27me3 level in human Pfeiffer cells at 0.05 to 1 uM by Western blot analysis; type: functional, cell-based; conditions: dose 0.05-1 µM, time 48-96 hrs, TDE = time-dependent effect
Pfeiffer [9] = assay: Effect on total H3 level in human Pfeiffer cells at 0.05 to 1 uM incubated for 48 to 96 hrs by Western blot analysis; type: functional, cell-based; conditions: dose 0.05-1 µM, time 48-96 hrs
Pfeiffer [10] = assay: Effect on EZH2 level in human Pfeiffer cells at 0.05 to 1 uM incubated for 48 to 96 hrs by Western blot analysis; type: functional, cell-based; conditions: dose 0.05-1 µM, time 48-96 hrs
Pfeiffer [11] = assay: Downregulation of H3K27me3 level in human Pfeiffer cells at 1 uM incubated for 96 hrs followed by compound washout measured after 120 hrs by Western blot analysis; type: functional, cell-based; conditions: time 216.0 hrs
[12] = Antiproliferative activity against human WILL-1 cells expressing wild-type EZH2 assessed as inhibition of cell proliferation incubated for 6 days by CCK8 assay; type: functional, cell-based; conditions: WILL-1, 144 h
[13] = target: T1, Protein arginine N-methyltransferase 1 (Homo sapiens, UniProt Q99873); assay: Inhibition of PRMT1 (unknown origin) using histone peptide/SAM as substrate by AlphaLisa assay
[14] = target: Histone-arginine methyltransferase CARM1 (Homo sapiens, UniProt Q86X55); assay: Inhibition of PRMT4 (unknown origin) using histone peptide/SAM as substrate by AlphaLisa assay
[15] = target: T2, Protein arginine N-methyltransferase 5 (Homo sapiens, UniProt O14744); assay: Inhibition of PRMT5 (unknown origin) using histone peptide/SAM as substrate by AlphaLisa assay
[16] = target: T3, Histone-lysine N-methyltransferase, H3 lysine-36 specific (Homo sapiens, UniProt Q96L73); assay: Inhibition of NSD1 (unknown origin) using histone peptide/SAM as substrate by AlphaLisa assay
[17] = target: Histone-lysine N-methyltransferase NSD2 (Homo sapiens, UniProt O96028); assay: Inhibition of NSD2 (unknown origin) using histone peptide/SAM as substrate by AlphaLisa assay
[18] = target: T4, Histone-lysine N-methyltransferase 2A (Homo sapiens, UniProt Q03164); assay: Inhibition of MLL1 (unknown origin) using histone peptide/SAM as substrate by HTRF assay
[19] = target: T5, Histone-lysine N-methyltransferase 2B (Homo sapiens, UniProt Q9UMN6); assay: Inhibition of MLL4 (unknown origin) using histone peptide/SAM as substrate by HTRF assay
[20] = target: Histone-lysine N-methyltransferase EHMT2 (Homo sapiens, UniProt Q96KQ7); assay: Inhibition of G9a (unknown origin) using histone peptide/SAM as substrate by AlphaLisa assay
[21] = target: Histone-lysine N-methyltransferase EHMT1 (Homo sapiens, UniProt Q9H9B1); assay: Inhibition of GLP (unknown origin) using histone peptide/SAM as substrate by AlphaLisa assay
[22] = target: T6, DNA (cytosine-5)-methyltransferase 1 (Homo sapiens, UniProt P26358); assay: Inhibition of DNMT1 (unknown origin) using histone peptide/SAM as substrate by AlphaLisa assay
[23] = target: T1, Protein arginine N-methyltransferase 1; assay: Inhibition of PRMT1 (unknown origin) using histone peptide/SAM as substrate at 10 uM by AlphaLisa assay
[24] = target: Histone-arginine methyltransferase CARM1 (Homo sapiens) (UniProt Q86X55); assay: Inhibition of PRMT4 (unknown origin) using histone peptide/SAM as substrate at 10 uM by AlphaLisa assay
[25] = target: T2, Protein arginine N-methyltransferase 5; assay: Inhibition of PRMT5 (unknown origin) using histone peptide/SAM as substrate at 10 uM by AlphaLisa assay
[26] = target: T3, Histone-lysine N-methyltransferase, H3 lysine-36 specific; assay: Inhibition of NSD1 (unknown origin) using histone peptide/SAM as substrate at 10 uM by AlphaLisa assay
[27] = target: Histone-lysine N-methyltransferase NSD2 (Homo sapiens) (UniProt O96028); assay: Inhibition of NSD2 (unknown origin) using histone peptide/SAM as substrate at 10 uM by AlphaLisa assay
[28] = target: T4, Histone-lysine N-methyltransferase 2A; assay: Inhibition of MLL1 (unknown origin) using histone peptide/SAM as substrate at 10 uM by HTRF assay
[29] = target: T5, Histone-lysine N-methyltransferase 2B; assay: Inhibition of MLL4 (unknown origin) using histone peptide/SAM as substrate at 10 uM by HTRF assay
[30] = target: Histone-lysine N-methyltransferase EHMT2 (Homo sapiens) (UniProt Q96KQ7); assay: Inhibition of G9a (unknown origin) using histone peptide/SAM as substrate at 10 uM by AlphaLisa assay
[31] = target: Histone-lysine N-methyltransferase EHMT1 (Homo sapiens) (UniProt Q9H9B1); assay: Inhibition of GLP (unknown origin) using histone peptide/SAM as substrate at 10 uM by AlphaLisa assay
[32] = target: T6, DNA (cytosine-5)-methyltransferase 1; assay: Inhibition of DNMT1 (unknown origin) using histone peptide/SAM as substrate at 10 uM by AlphaLisa assay
Pfeiffer [33] = assay: Antiproliferative activity against human Pfeiffer cells expressing EZH2 mutant assessed as inhibition of cell proliferation incubated for 6 days by CCK8 assay; type: functional, cell-based; conditions: time 6.0 day
KARPAS-422 [34] = assay: Antiproliferative activity against human KARPAS-422 cells expressing EZH2 mutant assessed as inhibition of cell proliferation incubated for 6 days by CCK8 assay; type: functional, cell-based; conditions: time 6.0 day
RL = assay: Antiproliferative activity against human RL cells expressing EZH2 mutant assessed as inhibition of cell proliferation incubated for 6 days by CCK8 assay; type: functional, cell-based; conditions: time 6.0 day
SU-DHL-2 = assay: Antiproliferative activity against human SUDHL2 cells expressing EZH2 mutant assessed as inhibition of cell proliferation incubated for 6 days by CCK8 assay; type: functional, cell-based; conditions: SU-DHL-2, 144 h
SU-DHL10 = assay: Antiproliferative activity against human SU-DHL-10 cells expressing EZH2 mutant assessed as inhibition of cell proliferation incubated for 6 days by CCK8 assay; type: functional, cell-based; conditions: time 6.0 day
Karpas-1106P = assay: Antiproliferative activity against human KARPAS-1106P cells expressing wild-type EZH2 assessed as inhibition of cell proliferation incubated for 6 days by CCK8 assay; type: functional, cell-based; conditions: time 6.0 day
DB = assay: Antiproliferative activity against human DB cells expressing wild-type EZH2 assessed as inhibition of cell proliferation incubated for 6 days by CCK8 assay; type: functional, cell-based; conditions: 144 h
WSUDLCL2 = assay: Antiproliferative activity against human WSUDLCL2 cells expressing wild-type EZH2 assessed as inhibition of cell proliferation incubated for 6 days by CCK8 assay; type: functional, cell-based; conditions: WSUDLCL2, 144 h
U2932 = assay: Antiproliferative activity against human U2932 cells expressing wild-type EZH2 assessed as inhibition of cell proliferation incubated for 6 days by CCK8 assay; type: functional, cell-based; conditions: U2932, 144 h
HT = assay: Antiproliferative activity against human HT cells expressing wild-type EZH2 assessed as inhibition of cell proliferation incubated for 6 days by CCK8 assay; type: functional, cell-based; conditions: time 6.0 day
OPM-2 = assay: Antiproliferative activity against human OPM-2 cells expressing wild-type EZH2 assessed as inhibition of cell proliferation incubated for 6 days by CCK8 assay; type: functional, cell-based; conditions: OPM-2, 144 h
[35] = Half life in Sprague-Dawley rat at 3 mg/kg, iv measured for 0.25 to 24 hrs by LC-MS/MS analysis; type: ADME, organism-based; conditions: in vivo, time 0.25-24 hrs
[36] = AUC (0 to last) in Sprague-Dawley rat at 3 mg/kg, iv measured for 0.25 to 24 hrs by LC-MS/MS analysis; type: ADME, organism-based; parameters: time 0.25-24 hrs, dose 3 mg/kg, route iv; conditions: in vivo
[37] = Cmax in Sprague-Dawley rat at 10 mg/kg, po measured for 0.25 to 24 hrs by LC-MS/MS analysis; type: ADME, organism-based; parameters: time lower 0.25 hrs, dose 10 mg/kg, time upper 24 hrs, route po; conditions: in vivo
[38] = AUC (0 to last) in Sprague-Dawley rat at 10 mg/kg, po measured for 0.25 to 24 hrs by LC-MS/MS analysis; type: ADME, organism-based; parameters: dose 10 mg/kg, time upper 24 hrs, time lower 0.25 hrs, route po; conditions: in vivo
[39] = Bioavailability in Sprague-Dawley rat at 10 mg/kg, po measured for 0.25 to 24 hrs by LC-MS/MS analysis; type: ADME, organism-based; conditions: in vivo, time 0.25-24 hrs

T3 sequence (Q96L73 whole entry): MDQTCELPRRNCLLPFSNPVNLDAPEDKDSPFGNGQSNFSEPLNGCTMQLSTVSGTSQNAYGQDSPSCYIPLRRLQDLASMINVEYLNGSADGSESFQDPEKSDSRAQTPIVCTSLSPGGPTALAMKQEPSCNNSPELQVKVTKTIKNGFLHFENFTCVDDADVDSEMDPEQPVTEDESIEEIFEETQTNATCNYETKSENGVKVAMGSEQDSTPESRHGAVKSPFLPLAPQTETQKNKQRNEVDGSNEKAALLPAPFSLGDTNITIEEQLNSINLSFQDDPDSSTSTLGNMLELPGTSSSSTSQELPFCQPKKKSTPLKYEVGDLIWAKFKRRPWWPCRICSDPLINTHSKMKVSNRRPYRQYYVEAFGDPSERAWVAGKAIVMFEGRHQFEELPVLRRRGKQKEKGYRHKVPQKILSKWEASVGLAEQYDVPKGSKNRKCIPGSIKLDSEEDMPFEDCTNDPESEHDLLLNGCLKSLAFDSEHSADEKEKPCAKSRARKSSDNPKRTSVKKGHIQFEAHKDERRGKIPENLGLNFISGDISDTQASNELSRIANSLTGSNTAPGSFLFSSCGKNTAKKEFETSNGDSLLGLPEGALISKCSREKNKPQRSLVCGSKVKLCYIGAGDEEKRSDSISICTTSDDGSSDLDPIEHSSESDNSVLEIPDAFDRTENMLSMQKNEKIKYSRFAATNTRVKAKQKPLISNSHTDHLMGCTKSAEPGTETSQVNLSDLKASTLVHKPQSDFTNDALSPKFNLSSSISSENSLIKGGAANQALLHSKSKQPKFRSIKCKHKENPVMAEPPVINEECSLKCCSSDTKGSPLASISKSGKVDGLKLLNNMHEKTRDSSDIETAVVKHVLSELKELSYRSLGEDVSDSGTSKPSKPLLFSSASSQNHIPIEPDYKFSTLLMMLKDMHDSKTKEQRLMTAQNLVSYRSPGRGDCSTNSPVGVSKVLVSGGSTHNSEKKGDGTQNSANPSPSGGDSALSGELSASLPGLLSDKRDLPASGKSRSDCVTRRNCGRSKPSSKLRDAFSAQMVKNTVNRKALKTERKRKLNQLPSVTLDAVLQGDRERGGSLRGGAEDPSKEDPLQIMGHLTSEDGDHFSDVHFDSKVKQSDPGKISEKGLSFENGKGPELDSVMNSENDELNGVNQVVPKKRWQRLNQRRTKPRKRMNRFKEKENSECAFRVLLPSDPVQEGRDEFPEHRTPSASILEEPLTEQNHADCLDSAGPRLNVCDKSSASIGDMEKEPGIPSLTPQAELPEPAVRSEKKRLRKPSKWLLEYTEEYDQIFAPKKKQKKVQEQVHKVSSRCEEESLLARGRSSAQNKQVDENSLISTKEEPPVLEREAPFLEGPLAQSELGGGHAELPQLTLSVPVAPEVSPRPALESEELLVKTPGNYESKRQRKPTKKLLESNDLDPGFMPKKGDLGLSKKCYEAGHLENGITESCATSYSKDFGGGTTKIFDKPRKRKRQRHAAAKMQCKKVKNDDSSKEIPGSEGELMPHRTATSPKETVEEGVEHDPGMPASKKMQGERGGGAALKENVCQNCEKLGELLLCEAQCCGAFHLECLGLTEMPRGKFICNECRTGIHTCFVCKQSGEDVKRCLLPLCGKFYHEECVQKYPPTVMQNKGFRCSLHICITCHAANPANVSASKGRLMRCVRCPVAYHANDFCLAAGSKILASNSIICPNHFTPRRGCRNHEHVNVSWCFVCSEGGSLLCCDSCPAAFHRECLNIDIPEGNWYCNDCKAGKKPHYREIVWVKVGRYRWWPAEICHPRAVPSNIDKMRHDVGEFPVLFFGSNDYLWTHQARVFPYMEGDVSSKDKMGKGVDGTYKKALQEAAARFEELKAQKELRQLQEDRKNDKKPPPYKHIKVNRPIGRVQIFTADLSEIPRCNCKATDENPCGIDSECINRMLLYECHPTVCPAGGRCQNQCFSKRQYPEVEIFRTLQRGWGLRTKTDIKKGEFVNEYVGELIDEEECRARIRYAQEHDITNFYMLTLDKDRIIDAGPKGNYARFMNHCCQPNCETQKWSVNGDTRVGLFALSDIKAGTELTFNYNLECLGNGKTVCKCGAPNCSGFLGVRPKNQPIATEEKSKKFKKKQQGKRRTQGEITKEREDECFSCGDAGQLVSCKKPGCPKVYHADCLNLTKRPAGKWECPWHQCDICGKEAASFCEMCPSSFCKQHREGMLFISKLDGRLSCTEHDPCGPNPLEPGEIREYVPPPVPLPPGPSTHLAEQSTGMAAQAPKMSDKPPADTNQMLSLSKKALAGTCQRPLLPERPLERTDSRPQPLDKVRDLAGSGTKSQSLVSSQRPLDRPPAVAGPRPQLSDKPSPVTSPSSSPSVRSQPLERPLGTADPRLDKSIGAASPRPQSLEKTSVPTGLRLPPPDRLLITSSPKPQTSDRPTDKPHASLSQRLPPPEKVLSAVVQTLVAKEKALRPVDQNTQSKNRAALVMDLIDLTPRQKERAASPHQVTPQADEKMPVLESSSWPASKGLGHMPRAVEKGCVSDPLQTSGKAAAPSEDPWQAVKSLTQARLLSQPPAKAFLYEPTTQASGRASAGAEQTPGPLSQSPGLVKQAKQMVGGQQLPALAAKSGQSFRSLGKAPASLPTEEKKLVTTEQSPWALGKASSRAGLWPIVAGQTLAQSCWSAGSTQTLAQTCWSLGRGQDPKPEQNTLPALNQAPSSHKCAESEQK
T2 sequence (O14744 whole entry): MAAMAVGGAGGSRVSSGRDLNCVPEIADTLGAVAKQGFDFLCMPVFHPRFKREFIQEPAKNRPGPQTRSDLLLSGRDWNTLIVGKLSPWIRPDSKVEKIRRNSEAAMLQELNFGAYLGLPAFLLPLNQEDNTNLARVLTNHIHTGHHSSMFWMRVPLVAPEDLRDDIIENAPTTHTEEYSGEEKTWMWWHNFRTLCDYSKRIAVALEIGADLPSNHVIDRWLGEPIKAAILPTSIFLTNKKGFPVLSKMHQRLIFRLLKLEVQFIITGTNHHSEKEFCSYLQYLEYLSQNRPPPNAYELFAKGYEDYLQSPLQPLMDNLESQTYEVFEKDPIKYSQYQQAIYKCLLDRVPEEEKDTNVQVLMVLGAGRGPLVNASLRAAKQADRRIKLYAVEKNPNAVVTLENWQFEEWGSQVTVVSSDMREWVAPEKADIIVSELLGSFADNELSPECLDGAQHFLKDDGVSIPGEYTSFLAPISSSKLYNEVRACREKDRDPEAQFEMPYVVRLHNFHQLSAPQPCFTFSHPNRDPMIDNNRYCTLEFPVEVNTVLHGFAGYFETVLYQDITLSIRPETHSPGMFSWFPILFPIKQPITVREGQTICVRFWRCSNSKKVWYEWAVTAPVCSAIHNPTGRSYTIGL
T6 sequence (P26358 whole entry): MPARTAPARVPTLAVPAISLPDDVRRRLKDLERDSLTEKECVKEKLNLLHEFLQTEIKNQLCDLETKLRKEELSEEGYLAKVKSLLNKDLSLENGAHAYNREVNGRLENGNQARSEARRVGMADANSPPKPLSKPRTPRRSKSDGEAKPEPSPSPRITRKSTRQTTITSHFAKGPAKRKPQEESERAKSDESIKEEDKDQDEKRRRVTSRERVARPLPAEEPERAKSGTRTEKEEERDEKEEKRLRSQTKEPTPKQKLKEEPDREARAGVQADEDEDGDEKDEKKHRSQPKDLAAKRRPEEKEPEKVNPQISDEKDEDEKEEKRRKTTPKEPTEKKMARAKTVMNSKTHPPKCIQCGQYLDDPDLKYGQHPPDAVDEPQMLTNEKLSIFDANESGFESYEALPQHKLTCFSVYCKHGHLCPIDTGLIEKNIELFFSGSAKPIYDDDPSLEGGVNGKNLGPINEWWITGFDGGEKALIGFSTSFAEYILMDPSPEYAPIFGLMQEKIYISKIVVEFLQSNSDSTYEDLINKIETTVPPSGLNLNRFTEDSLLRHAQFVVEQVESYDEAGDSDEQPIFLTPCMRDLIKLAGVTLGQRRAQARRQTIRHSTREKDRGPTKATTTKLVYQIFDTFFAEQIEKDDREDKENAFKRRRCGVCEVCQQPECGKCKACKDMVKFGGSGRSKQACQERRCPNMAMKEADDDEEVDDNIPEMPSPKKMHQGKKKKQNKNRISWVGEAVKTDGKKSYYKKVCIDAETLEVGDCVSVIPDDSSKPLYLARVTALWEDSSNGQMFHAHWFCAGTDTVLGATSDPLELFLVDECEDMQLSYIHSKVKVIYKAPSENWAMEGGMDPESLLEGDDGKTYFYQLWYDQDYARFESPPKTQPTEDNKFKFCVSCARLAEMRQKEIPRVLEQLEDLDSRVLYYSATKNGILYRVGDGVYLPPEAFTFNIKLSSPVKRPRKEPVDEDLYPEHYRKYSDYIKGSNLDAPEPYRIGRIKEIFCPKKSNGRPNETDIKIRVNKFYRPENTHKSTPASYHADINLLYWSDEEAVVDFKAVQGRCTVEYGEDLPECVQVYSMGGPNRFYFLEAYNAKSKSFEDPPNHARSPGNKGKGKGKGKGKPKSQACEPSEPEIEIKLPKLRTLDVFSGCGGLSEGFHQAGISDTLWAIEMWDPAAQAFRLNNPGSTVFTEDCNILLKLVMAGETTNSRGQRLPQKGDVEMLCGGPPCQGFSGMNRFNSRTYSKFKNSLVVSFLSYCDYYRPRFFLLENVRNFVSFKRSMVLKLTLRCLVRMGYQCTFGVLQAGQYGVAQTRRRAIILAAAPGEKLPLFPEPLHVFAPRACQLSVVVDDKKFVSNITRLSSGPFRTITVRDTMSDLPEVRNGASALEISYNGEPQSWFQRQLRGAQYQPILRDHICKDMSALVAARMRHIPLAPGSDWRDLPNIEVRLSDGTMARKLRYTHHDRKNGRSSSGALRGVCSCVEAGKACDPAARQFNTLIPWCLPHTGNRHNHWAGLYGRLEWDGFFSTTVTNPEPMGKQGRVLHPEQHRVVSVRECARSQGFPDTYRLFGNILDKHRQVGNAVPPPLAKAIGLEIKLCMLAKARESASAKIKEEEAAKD

C=CC(=O)NCc1cc(C(=O)NCc2c(SC)cc(C)[nH]c2=O)c(C)c(N(CC)C2CCOCC2)c1
Activity (KARPAS-422 [1]): Dose-Dependent Effect | Activity (KARPAS-422 [2]): Tde | IC50 (KARPAS-422 [3]): 0.064 µM | IC50 (Pfeiffer [4]): 0.022 µM | half-life [5]: 33.8 min | Papp at 20 µM [6]: 0.052 ×10⁻⁶ cm/s | Activity (Pfeiffer [7]): Dose-Dependent Effect | Activity (Pfeiffer [8]): Tde | Activity (Pfeiffer [9]): inactive | Activity (Pfeiffer [10]): inactive | Activity (Pfeiffer [11]): Active | IC50 [12]: > 3 µM | IC50 [13]: > 10 µM | IC50 [14]: > 10 µM | IC50 [15]: > 10 µM | IC50 [16]: > 10 µM | IC50 [17]: > 10 µM | IC50 [18]: > 10 µM | IC50 [19]: > 10 µM | IC50 [20]: > 10 µM | IC50 [21]: > 10 µM | IC50 [22]: > 10 µM | inhibition [23]: inactive | inhibition [24]: inactive | inhibition [25]: inactive | inhibition [26]: inactive | inhibition [27]: inactive | inhibition [28]: inactive | inhibition [29]: inactive | inhibition [30]: inactive | inhibition [31]: inactive | inhibition [32]: inactive | inhibition (Pfeiffer [33]): Active | inhibition (KARPAS-422 [34]): Active | inhibition (RL): Active | IC50 (SU-DHL-2): > 3 µM | inhibition (SU-DHL10): Active | inhibition (Karpas-1106P): Active | IC50 (DB): > 3 µM | IC50 (WSUDLCL2): > 3 µM | IC50 (U2932): > 3 µM | inhibition (HT): Active | IC50 (OPM-2): > 3 µM | t1/2 [35]: 16.8 min | AUC(0-t) [36]: 4890 ng·h/mL | Cmax [37]: 29.5 ng/mL | AUC(0-t) [38]: 8.16 ng·h/mL | bioavailability [39]: 0.05%
